Laboratory results taken from US20040161820A1 (priority 2001, published 2004).

How the values were obtained:
Format in all cases: cell-based
BG 01 = experiment: MIC of G418 in liquid medium; settings: industrial strain BG 01
Experimental: (§1) Bacterial strains used as plasmid hosts included: Escherichia coli DH5: F'lendA1 hsdr17 (rk^−mk^−) supE44 thi-1 recA1 gyrA(Nal^r) relA1 (lacZYA-argF)U169 deoR (80dlac (lacZ)M15) (Sambrook et al., 1989). Yeast were tested in solid medium YPD and eight industrial strains, from laboratory and seven Amazonian strains were sensitive to 200 μg/ml and 500 μg/ml of G418. Afterwards, the minimum concentration of antibiotic that inhibits the growth (MIC) in liquid medium was determined (Table 1).

CR-01 = experiment: MIC of G418 in liquid medium; settings: industrial strain CR-01
Experimental: as §1

Fermix = experiment: MIC of G418 in liquid medium; settings: industrial strain Fermix
Experimental: as §1

L101 = experiment: MIC of G418 in liquid medium; settings: wild-type Amazon strain L101
Experimental: as §1

L103 = experiment: MIC of G418 in liquid medium; settings: wild-type Amazon strain L103
Experimental: as §1

L105 = experiment: MIC of G418 in liquid medium; settings: industrial strain L105
Experimental: as §1

L106 = experiment: MIC of G418 in liquid medium; settings: industrial strain L106
Experimental: as §1

L110 = experiment: MIC of G418 in liquid medium; settings: wild-type Amazon strain L110
Experimental: as §1

L136 = experiment: MIC of G418 in liquid medium; settings: wild-type Amazon strain L136
Experimental: as §1

L151 = experiment: MIC of G418 in liquid medium; settings: wild-type Amazon strain L151
Experimental: as §1

L69 = experiment: MIC of G418 in liquid medium; settings: wild-type Amazon strain L69
Experimental: as §1

L77 = experiment: MIC of G418 in liquid medium; settings: wild-type Amazon strain L77
Experimental: as §1

[1] = system: Montrachet de la Champagne; experiment: MIC of G418 in liquid medium; settings: industrial strain Montrachet de la Champagne
Experimental: as §1

PE-2 = experiment: MIC of G418 in liquid medium; settings: industrial strain PE-2
Experimental: as §1

S288C = experiment: MIC of G418 in liquid medium; settings: Saccharomyces cerevisiae, strain S288C
Experimental: as §1

YPH252 = experiment: MIC of G418 in liquid medium; settings: Saccharomyces cerevisiae, strain YPH252
Experimental: as §1

SA-01 = experiment: organism not typed

With CN[C@@H]1[C@@H](O)[C@@H](O[C@@H]2[C@@H](O)[C@H](O[C@H]3O[C@H]([C@@H](C)O)[C@@H](O)[C@H](O)[C@H]3N)[C@@H](N)C[C@H]2N)OC[C@]1(C)O [G418, geneticin] the MIC (BG 01) was ≤ 50 µg/mL, the MIC (CR-01) was ≤ 50 µg/mL and the MIC (Fermix) was ≤ 50 µg/mL. The MIC (L101) was 100 µg/mL, the MIC (L103) was 150 µg/mL and the MIC (L105) was 25 µg/mL. It also gave an MIC (L106) of 25 µg/mL, an MIC (L110) of 150 µg/mL and an MIC (L136) of 25 µg/mL. For the same compound, the MIC (L151) was 12.5 µg/mL, the MIC (L69) was 100 µg/mL and the MIC (L77) was 25 µg/mL. For the same compound, the MIC [1] was “≦50 μg/ml”, the MIC (PE-2) was ≤ 50 µg/mL and the MIC (S288C) was 100 µg/mL. The MIC (YPH252) was ≤ 50 µg/mL and the MIC (SA-01) was ≤ 50 µg/mL.
